Here are results for eight molecules from publication PMC6880814, “Skeletocutins M–Q: biologically active compounds from the fruiting bodies of the basidiomycete Skeletocutis sp. collected in Africa” (Beilstein Journal of Organic Chemistry, 2019).

For experiment [1], the system named is S. aureus DSM1104. Put plainly: Inhibition of biofilm formation. On the set-up: biofilm inhibition results from plate reader: reference not given here. The format is cell-based, Staphylococcus aureus. The note with it: for biofilm inhibition results from plate reader: raw reading, replications 1-3; for inhibition of biofilm formation (in words): S. aureus. As for the experimental part: The assay was performed in Falcon® 96-well flat bottom plates as previously described. […] Methanol was used as negative control, while tetracycline was used as positive control. All experiments were made in triplicates.

The subject of experiment [2] is surface-bound aminopeptidases of KB3.1 cells. Put plainly: Inhibition of ʟ-Leu-AMC hydrolysis (leucine aminopeptidases). The conditions noted are these: at 50 and 110 µM substrate concentration. The class given is cell-based.
Experiment [3] shares this test system. Described as above. The class given is cell-based. The conditions noted are these: for IC50, inhibition of ʟ-Leu-AMC hydrolysis: KB3.1 cells. As to the method: Hydrolysis of ʟ-Leu-AMC by the surface-bound aminopeptidases of KB3.1 cells was assayed based on the method from Weber and co-workers with slight modifications. KB3.1 cells were grown as monolayer cultures in Dulbecco's modified Eagle's medium (DMEM) containing 10% fetal calf serum at 37 °C in 24-well multidishes. After three days, the confluent monolayers were washed twice with phosphate buffered saline (PBS), and the reaction mixture (450 µL Hanks' buffer at pH 7.2 containing 50 or 100 µM substrate ʟ-Leu-AMC, compounds dissolved in 50 µL DMSO) was added. After being incubated at 23 °C for 30 min, 1 mL cold 0.2 M glycine buffer at pH 10.5 was added. The amount of hydrolyzed 7-amino-4-methylcoumarin (AMC) was measured in a Tecan Infinite M200 PRO fluorescence spectrophotometer (excitation and emission at λ = 365 and 440 nm, respectively). Bestatin [12] and DMSO were used as positive and negative control, respectively.

Experiment [4] concerns several Gram-positive bacteria (Bacillus subtilis, S. aureus, MRSA, Micrococcus luteus). The arrangement: method as in PMID 31310114. The conditions noted are these: B. subtilis, M. luteus; cited from earlier work.
Experiment [5] deals with leucine aminopeptidase in HeLa S3 cells. The arrangement: method as in PMID 1620745. The note with it: 50 μM substrate concentration; cited from earlier work.

Values after ≈ are worked out from the molar mass of the structure shown. Values joined by “and” are separate entries in the source; they are usually repeats but may differ in a detail not shown here. Identical values can stand only once. “Also recorded” adds a separate entry of the source. Bounds are passed on as bounds.

With `CC1=C(CCCCCCCCCCCCCCCCCCC(C(=O)O)C(CC(=O)O)C(=O)O)C(=O)OC1=O` (stereo not drawn) [Compound 5, 21-(4’-methyl-2’,5’-dioxo-2’,5’-dihydrofuran-3’-yl)henicosane-1,2,3-tricarboxylic acid], the “biofilm inhibition results from plate reader” value (“biofilm inhibition results” below) in experiment [1] (8 µg/ml) was 3.444 and 2.956 and 3.704; in experiment [1] (16 µg/ml) it was 3.633 and 3.438 and 3.879; in experiment [1] (32 µg/ml) it was 4.452 and 3.838 and 3.757; in experiment [1] (64 µg/ml), 3.708 and 3.627 and 3.623; in experiment [1] (128 µg/ml) it was 3.871 and 3.836 and 3.597; in experiment [1] (256 µg/ml) it was 3.822 and 3.87 and 3.988. Further, in experiment [1], the “inhibition of biofilm formation (in words)” value was “weakly inhibit”. Moreover, the “IC50, inhibition of ʟ-Leu-AMC hydrolysis” value in experiment [2] was more than 80 µg/mL; in experiment [3] (ʟ-Leu-AMC (50 µM)), 153.2 µg/mL; in experiment [3] (ʟ-Leu-AMC (100 µM)), 225.3 µg/mL.
Regarding `CC1=C(CCCCCCCCCCCCCCCCC/C=C(\C(=O)O)C(CC(=O)O)C(=O)O)C(=O)OC1=O` (stereo not drawn) [Compound 4, (Z)-21-(4’-methyl-2’,5’-dioxo-2’,5’-dihydrofuran-3’-yl)henicos-3-ene-1,2,3-tricarboxylic acid], the “biofilm inhibition results” value in experiment [1] (8 µg/ml) was 4.243 and 3.452 and 3.554; in experiment [1] (16 µg/ml), 4.47 and 3.878 and 4.114; in experiment [1] (32 µg/ml), 4.702 and 3.439 and 4.271; in experiment [1] (64 µg/ml), 3.957 and 3.887 and 3.524; in experiment [1] (128 µg/ml), 4.03 and 4.115 and 4.224; in experiment [1] (256 µg/ml) it was 6 and 5.066 and 4.841. Further, the “ʟ-Leu-AMC inhibition assay (in words)” value in experiment [3] is “performed moderately”. For the same molecule, the “IC50, inhibition of ʟ-Leu-AMC hydrolysis” value in experiment [3] (ʟ-Leu-AMC (50 µM)) was found to be 71.1 µg/mL; in experiment [3] (ʟ-Leu-AMC (100 µM)) it was 102.3 µg/mL.
As to `CC1=C(CCCCCCCCCCCCCCCCCC/C=C(\CC(=O)O)C(=O)O)C(=O)OC1=O` [Compound 3, (E)-2-(19-(4’-methyl-2’,5’-dioxo-2’,5’-dihydrofuran-3’-yl)nonadecylidene)butanedioic acid], the “biofilm inhibition results” value is 2.88 and 3.631 and 3.132 in experiment [1] (8 µg/ml); 2.837 and 3.385 and 3.2 in experiment [1] (16 µg/ml); 2.875 and 3.534 and 3.458 in experiment [1] (32 µg/ml); 3.373 and 3.63 and 3.041 in experiment [1] (64 µg/ml); 3.752 and 3.854 and 3.496 in experiment [1] (128 µg/ml); 1.742 and 2.419 and 2.26 in experiment [1] (256 µg/ml). In addition, the “inhibition of biofilm formation (in words)” value in experiment [1] was “moderately inhibited; also recorded: weakly inhibit”. For the same molecule, the results for the “IC50, inhibition of ʟ-Leu-AMC hydrolysis” value in experiment [2], in experiment [3] (ʟ-Leu-AMC (50 µM)) and in experiment [3] (ʟ-Leu-AMC (100 µM)) were more than 80 µg/mL, 89.6 µg/mL and 130.4 µg/mL, respectively. Further, the “ʟ-Leu-AMC inhibition assay (in words)” value in experiment [3] is on record as “performed moderately”.
In the case of `CN(C)[C@@H]1C(O)=C(C(N)=O)C(=O)[C@@]2(O)C(O)=C3C(=O)c4c(O)cccc4[C@@](C)(O)[C@H]3C[C@@H]12` [Tetracycline, reference compound], the “biofilm inhibition results” value in experiment [1] (32 µg/ml) was 1.107 and 1.315 and 1.404 and 1.155 and 0.918 and 0.791; in experiment [1] (64 µg/ml), 0.885 and 0.917 and 0.836 and 0.83 and 0.627 and 0.95; in experiment [1] (128 µg/ml), 0.622 and 0.527 and 0.478 and 0.693 and 0.655 and 0.765; in experiment [1] (256 µg/ml), 0.462 and 0.414 and 0.487 and 0.644 and 0.444 and 0.498.
For the molecule `CC(C)C[C@H](NC(=O)[C@@H](O)[C@H](N)Cc1ccccc1)C(=O)O` [Bestatin, reference compound], the entries for the “IC50, inhibition of ʟ-Leu-AMC hydrolysis” value in experiment [3] (ʟ-Leu-AMC (50 µM)) and in experiment [3] (ʟ-Leu-AMC (100 µM)) were 10.8 µg/mL and 40.9 µg/mL, respectively.
As to `CC1=C(CCCCCCCCCCCCCCCCCCCCC2=C(C)C(=O)OC2=O)C(=O)OC1=O` [Compound 2, skeletocutin N], the “biofilm inhibition results” value was 3.048 and 2.841 and 2.718 in experiment [1] (8 µg/ml); 2.916 and 2.987 and 2.995 in experiment [1] (16 µg/ml); 3.176 and 3.059 and 3.016 in experiment [1] (32 µg/ml); 2.823 and 3.791 and 2.979 in experiment [1] (64 µg/ml); 3.623 and 4.381 and 3.14 in experiment [1] (128 µg/ml); 4.44 and 4.077 and 4.364 in experiment [1] (256 µg/ml).
On to `CC1=C(CCCCCCCCCCCCCCCCC2=C(C)C(=O)OC2=O)C(=O)OC1=O` [Compound 6, tyromycin A], for which the “activity against Gram-positive bacteria (in words)” value in experiment [4] is reported as “active”. Moreover, the “IC50, similar assay against HeLa S3 cells” value in experiment [5] was 31 µg/mL (≈ 69.4 µM). The “biofilm inhibition results” value was 3.766 and 3.772 and 3.586 in experiment [1] (8 µg/ml); 3.612 and 3.954 and 4.007 in experiment [1] (16 µg/ml); 3.328 and 3.954 and 3.188 in experiment [1] (32 µg/ml); 3.105 and 3.723 and 3.478 in experiment [1] (64 µg/ml); 3.861 and 2.858 and 2.819 in experiment [1] (128 µg/ml); 4.54 and 3.949 and 6 in experiment [1] (256 µg/ml). For the same molecule, in experiment [3] (ʟ-Leu-AMC (50 µM)), the “IC50, inhibition of ʟ-Leu-AMC hydrolysis” value worked out at 138.4 µg/mL.
Take `CC1=C(CCCCCCCCCCCCCCCCCCC2=C(C)C(=O)OC2=O)C(=O)OC1=O` [Compound 1, 1,18-bis[4′-methyl-2′,5′-dioxo-3′-furyl]octadecane]: the “biofilm inhibition results” value in experiment [1] (8 µg/ml) was 3.282 and 3.031 and 2.758; in experiment [1] (16 µg/ml) it was 3.706 and 3.472 and 3.059; in experiment [1] (32 µg/ml) it was 3.45 and 3.219 and 3.38; in experiment [1] (64 µg/ml) it was 3.207 and 4.69 and 3.419; in experiment [1] (128 µg/ml), 3.365 and 3.804 and 3.615; in experiment [1] (256 µg/ml), 4.909 and 5.651 and 4.54.
